From patent US6995143B2, “Macrolides with antibacterial activity” (Basilea Pharmaceutica AG, priority 2002, dated 2006)
≈ marks a conversion by molar mass, not a printed value.

Legend:
Type in all cases: cell-based
[1] = tested on: Escherichia coli ATCC 25922; experiment: MIC, standard microdilution technique; details: for MIC: ATCC25922, read-out: minimum inhibitory concentration (MIC), Strain D
Method in brief: (§1)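 MIC endpoints reflect testing per the 2000 NCCLS M7-A5 standard method for aerobes.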

[2] = tested on: Staphylococcus aureus 1086; experiment: MIC, standard microdilution technique; details: for MIC: read-out: minimum inhibitory concentration (MIC), Strain B
Method in brief: as §1

[3] = tested on: Staphylococcus aureus 745; experiment: MIC, standard microdilution technique; details: for MIC: read-out: minimum inhibitory concentration (MIC), Strain C
Method in brief: as §1

[4] = tested on: Staphylococcus aureus ATCC 29213; experiment: MIC, standard microdilution technique; details: for MIC: ATCC29213, read-out: minimum inhibitory concentration (MIC), Strain A
Method in brief: as §1

[5] = tested on: Streptococcus pneumoniae 12288; experiment: MIC, standard microdilution technique; details: for MIC: read-out: minimum inhibitory concentration (MIC), Strain H
Method in brief: as §1

[6] = tested on: Streptococcus pneumoniae SL199T; experiment: MIC, standard microdilution technique; details: for MIC: read-out: minimum inhibitory concentration (MIC), Strain G
Method in brief: as §1

[7] = tested on: Streptococcus pneumoniae l/l; experiment: MIC, standard microdilution technique; details: for MIC: read-out: minimum inhibitory concentration (MIC), Strain E
Method in brief: as §1

[8] = tested on: Streptococcus pneumoniae ¼; experiment: MIC, standard microdilution technique; details: for MIC: read-out: minimum inhibitory concentration (MIC), Strain F
Method in brief: as §1

[9] = tested on: Haemophilus influenzae 12214; experiment: MIC, standard agar dilution method using HTM medium; details: for MIC: read-out: minimum inhibitory concentration (MIC), Strain K
Method in brief: (§2)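 Susceptibility of H. influenzae isolates is determined by dilution testing conducted to the NCCLS M7-A5 approved standard.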

[10] = tested on: Haemophilus influenzae B1501; experiment: as above; details: for MIC: read-out: minimum inhibitory concentration (MIC), Strain M
Method in brief: as §2

[11] = tested on: Haemophilus influenzae QK12/87; experiment: as above; details: for MIC: read-out: minimum inhibitory concentration (MIC), Strain I
Method in brief: as §2

[12] = tested on: Haemophilus influenzae QK50; experiment: as above; details: for MIC: read-out: minimum inhibitory concentration (MIC), Strain L
Method in brief: as §2

Structure (SMILES)	minimum inhibitory concentration (MIC), Strain D [1]	minimum inhibitory concentration (MIC), Strain B [2]	minimum inhibitory concentration (MIC), Strain C [3]	minimum inhibitory concentration (MIC), Strain A [4]	minimum inhibitory concentration (MIC), Strain H [5]	minimum inhibitory concentration (MIC), Strain G [6]	minimum inhibitory concentration (MIC), Strain E [7]	minimum inhibitory concentration (MIC), Strain F [8]	minimum inhibitory concentration (MIC), Strain K [9]	minimum inhibitory concentration (MIC), Strain M [10]	minimum inhibitory concentration (MIC), Strain I [11]	minimum inhibitory concentration (MIC), Strain L [12]	further results
CC[C@H]1OC(=O)[C@@](C)(F)C(=O)[C@H](C)[C@@H](O[C@@H]2O[C@H](C)C[C@H](N(C)C)[C@H]2O)[C@](C)(OC)C[C@@H](C)C(=O)[C@H](C)[C@H]2[C@@H](SCCn3cnc4c(N)ncnc43)C(=O)O[C@@]21C (single isomer, unassigned) [Example 56]	32 µg/mL (≈ 38.9 µM)	<=0.06 μg/ml	>32 µg/mL	<=0.06 μg/ml	1 µg/mL (≈ 1.22 µM)	<=0.06 μg/ml	<=0.06 μg/ml	<=0.06 μg/ml	1 µg/mL (≈ 1.22 µM)	0.5 µg/mL (≈ 0.608 µM)	1 µg/mL (≈ 1.22 µM)	0.5 µg/mL (≈ 0.608 µM)	–
CC[C@H]1OC(=O)[C@@](C)(F)C(=O)[C@H](C)[C@@H](O[C@@H]2O[C@H](C)C[C@H](N(C)C)[C@H]2O)[C@](C)(OC)C[C@@H](C)C(=O)[C@H](C)[C@H]2[C@@H]([S+]([O-])CCCn3cnc4c(N)ncnc43)C(=O)O[C@@]21C (single isomer, unassigned) [Example 57]	>32 µg/mL	2 µg/mL (≈ 2.34 µM)	>32 µg/mL	2 µg/mL (≈ 2.34 µM)	32 µg/mL (≈ 37.5 µM)	1 µg/mL (≈ 1.17 µM)	<=0.06 μg/ml	0.125 µg/mL (≈ 0.147 µM)	8 µg/mL (≈ 9.38 µM)	4 µg/mL (≈ 4.69 µM)	4 µg/mL (≈ 4.69 µM)	8 µg/mL (≈ 9.38 µM)	–
CC[C@H]1OC(=O)[C@H](C)[C@@H](O[C@H]2C[C@@](C)(OC)[C@@H](O)[C@H](C)O2)[C@H](C)[C@@H](O[C@@H]2O[C@H](C)C[C@H](N(C)C)[C@H]2O)[C@](C)(OC)C[C@@H](C)C(=O)[C@H](C)[C@@H](O)[C@]1(C)O [Clarithromycin, reference compound]	–	–	–	–	–	–	–	–	–	–	–	–	MIC [1]: > 32 µg/mL; MIC [2]: > 32 µg/mL; MIC [3]: > 32 µg/mL; MIC [4]: 0.125 µg/mL (≈ 0.167 µM); MIC [5]: > 32 µg/mL; MIC [6]: > 32 µg/mL; MIC [7]: ≤ 0.06 µg/mL; MIC [8]: 32 µg/mL (≈ 42.8 µM); MIC [9]: 4 µg/mL (≈ 5.35 µM); MIC [10]: 4 µg/mL (≈ 5.35 µM); MIC [11]: 4 µg/mL (≈ 5.35 µM); MIC [12]: 8 µg/mL (≈ 10.7 µM)
CC[C@H]1OC(=O)[C@H](C)[C@@H](O[C@H]2C[C@@](C)(OC)[C@@H](O)[C@H](C)O2)[C@H](C)[C@@H](O[C@@H]2O[C@H](C)C[C@H](N(C)C)[C@H]2O)[C@](C)(O)C[C@@H](C)C(=O)[C@H](C)[C@@H](O)[C@]1(C)O [Erythromycin, reference compound]	–	–	–	–	–	–	–	–	–	–	–	–	MIC [1]: > 32 µg/mL; MIC [2]: > 32 µg/mL; MIC [3]: > 32 µg/mL; MIC [4]: 0.25 µg/mL (≈ 0.341 µM); MIC [5]: > 32 µg/mL; MIC [6]: > 32 µg/mL; MIC [7]: ≤ 0.06 µg/mL; MIC [8]: > 32 µg/mL; MIC [9]: 4 µg/mL (≈ 5.45 µM); MIC [10]: 4 µg/mL (≈ 5.45 µM); MIC [11]: 4 µg/mL (≈ 5.45 µM); MIC [12]: 8 µg/mL (≈ 10.9 µM)
CC[C@H]1OC(=O)[C@H](C)C(=O)[C@H](C)[C@@H](O[C@@H]2O[C@H](C)C[C@H](N(C)C)[C@H]2O)[C@](C)(OC)C[C@@H](C)C(=O)[C@H](C)[C@H]2[C@@H](SCC(=O)c3ccc(N(CC)CC)cc3)C(=O)O[C@@]21C [Example 17]	>32 µg/mL	8 µg/mL (≈ 9.6 µM)	>32 µg/mL	16 µg/mL (≈ 19.2 µM)	>32 µg/mL	>32 µg/mL	1 µg/mL (≈ 1.2 µM)	>32 µg/mL	>32 µg/mL	>32 µg/mL	>32 µg/mL	>32 µg/mL	–

More lines, main results first:

minimum inhibitory concentration (MIC), Strain D [1]	minimum inhibitory concentration (MIC), Strain B [2]	minimum inhibitory concentration (MIC), Strain C [3]	minimum inhibitory concentration (MIC), Strain A [4]	minimum inhibitory concentration (MIC), Strain H [5]	minimum inhibitory concentration (MIC), Strain G [6]	minimum inhibitory concentration (MIC), Strain E [7]	minimum inhibitory concentration (MIC), Strain F [8]	minimum inhibitory concentration (MIC), Strain K [9]	minimum inhibitory concentration (MIC), Strain M [10]	minimum inhibitory concentration (MIC), Strain I [11]	minimum inhibitory concentration (MIC), Strain L [12]	Structure (SMILES)	further results
>32 µg/mL	1 µg/mL (≈ 1.2 µM)	>32 µg/mL	1 µg/mL (≈ 1.2 µM)	>32 µg/mL	32 µg/mL (≈ 38.5 µM)	<=0.06 μg/ml	>32 µg/mL	32 µg/mL (≈ 38.5 µM)	32 µg/mL (≈ 38.5 µM)	>32 µg/mL	32 µg/mL (≈ 38.5 µM)	CC[C@H]1OC(=O)[C@H](C)C(=O)[C@H](C)[C@@H](O[C@@H]2O[C@H](C)C[C@H](N(C)C)[C@H]2O)[C@](C)(OC)C[C@@H](C)C(=O)[C@H](C)[C@H]2[C@@H](SCC(=O)c3ccc4c(c3)CCC(=O)N4)C(=O)O[C@@]21C [Example 6]	–
>32 µg/mL	0.5 µg/mL (≈ 0.655 µM)	>32 µg/mL	1 µg/mL (≈ 1.31 µM)	>32 µg/mL	32 µg/mL (≈ 41.9 µM)	<=0.06 μg/ml	32 µg/mL (≈ 41.9 µM)	32 µg/mL (≈ 41.9 µM)	32 µg/mL (≈ 41.9 µM)	32 µg/mL (≈ 41.9 µM)	32 µg/mL (≈ 41.9 µM)	CC[C@H]1OC(=O)[C@H](C)C(=O)[C@H](C)[C@@H](O[C@@H]2O[C@H](C)C[C@H](N(C)C)[C@H]2O)[C@](C)(OC)C[C@@H](C)C(=O)[C@H](C)[C@H]2[C@@H](SCC(=O)c3ccccn3)C(=O)O[C@@]21C [Example 7]	–
>32 µg/mL	1 µg/mL (≈ 1.16 µM)	>32 µg/mL	1 µg/mL (≈ 1.16 µM)	32 µg/mL (≈ 37.1 µM)	8 µg/mL (≈ 9.28 µM)	<=0.06 μg/ml	0.5 µg/mL (≈ 0.58 µM)	16 µg/mL (≈ 18.6 µM)	4 µg/mL (≈ 4.64 µM)	8 µg/mL (≈ 9.28 µM)	8 µg/mL (≈ 9.28 µM)	CC[C@H]1OC(=O)[C@H](C)C(=O)[C@H](C)[C@@H](O[C@@H]2O[C@H](C)C[C@H](N(C)C)[C@H]2O)[C@](C)(OC)C[C@@H](C)C(=O)[C@H](C)[C@H]2[C@@H](SCCN(C)CCn3cnc4c(N)ncnc43)C(=O)O[C@@]21C [Example 9]	–
>32 µg/mL	<=0.06 μg/ml	>32 µg/mL	0.125 µg/mL (≈ 0.142 µM)	16 µg/mL (≈ 18.2 µM)	4 µg/mL (≈ 4.56 µM)	<=0.06 μg/ml	0.25 µg/mL (≈ 0.285 µM)	8 µg/mL (≈ 9.11 µM)	4 µg/mL (≈ 4.56 µM)	8 µg/mL (≈ 9.11 µM)	4 µg/mL (≈ 4.56 µM)	CC[C@H]1OC(=O)[C@@](C)(F)C(=O)[C@H](C)[C@@H](O[C@@H]2O[C@H](C)C[C@H](N(C)C)[C@H]2O)[C@](C)(OC)C[C@@H](C)C(=O)[C@H](C)[C@H]2[C@@H](S(=O)(=O)CCCn3cc(-c4ccccc4)cn3)C(=O)O[C@@]21C [Example 11]	–
